The term inhibition denotes the relative decrease from the control value, in per cent. A word on the pIC50: it is −log10 of the IC50, conventionally taken in molar units.

pIC50: −log10 of the molar value. Some results are limits rather than exact numbers.

One assay relates to Aβ production in 293 751 SWE and CHO 751 SWE cells (transfected with APP-751 Swedish mutation). Kind of assay: Aβ production inhibition activity in cells (Aβ ELISA of conditioned media, normalized for cytotoxicity by MTT). Format: cell-based. The note with it: 5 μg/ml. Put shortly: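 293 and CHO cells stably expressing APP-751 with the Swedish mutation were seeded in 96-well plates and grown overnight at 37° C. They were pretreated with compound for two hours, then given fresh compound-containing media for two more hours. Aβ in the conditioned media was quantified by sandwich ELISA (antibodies 266 and 6C6) and normalized to MTT viability versus drug-free control.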
(In general: An ELISA detects its analyte on a solid surface through an enzyme-linked reagent.)
With `Cc1ccc(C)c(COc2ccc(CN(O)C(=S)NCc3ccccc3)cc2)c1` [Compound 58], the inhibition at 5 µg/mL was found to be 32%. On the same count and under the same terms, then `ON(Cc1ccc(-c2ccccc2)cc1)C(=S)NCc1ccccc1` [Compound 77], with 2%. The same measure, in the same setting: the value for `CCCCCCNC(=S)N(O)Cc1ccc(OCc2ccc(Cl)c(Cl)c2)cc1` [Compound 55] was 37%. On to `CC(C)(C)c1ccc(Oc2cccc(C(Cc3ccccc3)N(O)C(=S)NCc3ccccc3)c2)cc1` (stereo not shown) [Compound 33], for which the inhibition at 5 µg/mL amounted to 16%. `CC(C)(C)c1ccc(COc2ccc(CN(O)C(=S)NCc3ccccc3)cc2)cc1` [Compound 52]: the inhibition at 5 µg/mL worked out at 22%. With `CCCCCCNC(=S)N(O)Cc1ccc(OCc2ccc(CCCC)cc2)cc1` [Compound 63], the inhibition at 5 µg/mL came to 9%.

Still in this assay, the particulars now being: 10 μg/ml, % of drug-free control, normalized to MTT.
On to `CC(C)(C)c1ccc(Oc2ccc(NC(=S)NCc3cccnc3)cc2)cc1` [Compound 121], for which the inhibition at 10 µg/mL is 37%. `O=C(Nc1ccc(Cl)c(Cl)c1)N1CCCCC1` [Compound 229]: the “Aβ Production Inhibition Activity, % inhibition at 10 μg/ml” value is given as 8%. Consider `CC(NC(=S)NCc1ccccc1)c1cccc(Oc2ccccc2)c1` (stereo not shown) [Compound 47], for which the inhibition at 10 µg/mL was found to be 8%. On the same count and under the same terms, the value for `Cc1nnc(NC(=O)Nc2c(C)cccc2C)s1` [Compound 251] was -13%.

Take `CC(C)(C)c1ccccc1Oc1ccc(NC(=S)Nc2ccc(Cl)c(C(F)(F)F)c2)cc1` [Compound 174]: the inhibition at 10 µg/mL came to 66%. The same measure, in the same setting: the value for `CC(C)(C)c1ccc(Oc2ccc(NC(=S)Nc3ccc(Cl)cc3)cc2)cc1` [Compound 191] was 33%. In the case of `CC(C)(C)c1ccc(S(=O)(=O)c2cccc(CN(O)C(=S)NCc3ccccc3)c2)cc1` [Compound 92], the inhibition at 10 µg/mL was found to be 25%.

As for `Cc1cc(C(=O)Nc2ccc(Cl)c(Cl)c2)no1` [Compound 242], the “Aβ Production Inhibition Activity, % inhibition at 10 μg/ml” value is 29%.

In the case of `CCCc1cc(C(C)(C)C)ccc1Oc1ccc(NC(=S)Nc2ccc(C)c(C)c2)cc1` [Compound 196], the inhibition at 10 µg/mL turned out to be 44%. For `CC(c1cccc(Oc2ccc(C(C)(C)C)cc2)c1)N(C(=S)NCc1ccccc1)N(C)C` (stereo not shown) [Compound 38], the inhibition at 10 µg/mL amounted to 32%. For `CSc1ccc(NC(=O)Nc2ccccc2Cl)cc1` [Compound 157], the inhibition at 10 µg/mL was determined as 41%.

For the compound `CCN1CCCC(C(=O)Nc2ccc(Cl)c(Cl)c2)C1` (stereo not shown) [Compound 230], the “Aβ Production Inhibition Activity, % inhibition at 10 μg/ml” value is listed as 28%. `CCCc1cc(C(C)(C)C)ccc1Oc1ccc(NC(=S)Nc2ccc(Cl)c(C(F)(F)F)c2)cc1` [Compound 193]: the inhibition at 10 µg/mL was 29%. In the case of `CCCc1cc(C(C)(C)C)ccc1Oc1ccc(NC(=S)NCc2cccc(C)c2)cc1` [Compound 194], the inhibition at 10 µg/mL turned out to be 31%. Still for that read-out and setting: the value for `CC(c1cccc(Oc2ccc(C(C)(C)C)cc2)c1)N(O)C(=O)NCc1ccccc1` (stereo not shown) [Compound 46] was 68%.

The assay is the same for the next values; noted with them: 2 h pretreatment + 2 h incubation.
In the case of `CCCCCCNC(=S)N(O)Cc1cccc(S(=O)(=O)c2ccc(C(C)(C)C)cc2)c1` [Compound 90], the negative logarithm of the IC50 (pIC50) was 4.66. The same measure, in the same setting: then `CCCCCCNC(=S)N(O)C(C)c1cccc(Oc2ccc(C(C)(C)C)cc2)c1` (stereo not shown) [Compound 19], with 4.96.

Take `CC(c1cccc(Oc2ccc(C(C)(C)C)cc2)c1)N(O)C(=S)Nc1cccc2ccccc12` (stereo not shown) [Compound 12]: the pIC50 is under 4.70. Same read-out and setting: the value for `CC(C)(C)c1ccc([S+]([O-])c2cccc(CN(O)C(=S)NCc3ccccc3)c2)cc1` (stereo not shown) [Compound 91] was 4.77. On the same count and under the same terms, then `CCCCCCNC(=S)N(O)Cc1cccc(Oc2ccc(C(C)(C)C)cc2CCC)c1` [Compound 102], with 5.21.

`CC(C)(C)c1cccc(Oc2ccc(NC(=S)Nc3cccc(C(F)(F)F)c3)cc2)c1` [Compound 176]: the pIC50 is 5.34. As to `CCCC(c1cccc(Oc2ccc(C(C)(C)C)cc2)c1)N(O)C(=S)NCc1ccc(Cl)c(Cl)c1` (stereo not shown) [Compound 31], the pIC50 is 5.00. As to `CC(C)(C)c1ccccc1Oc1ccc(NC(=S)Nc2ccccc2C(F)(F)F)cc1` [Compound 190], the pIC50 is 4.86. With `CCCc1cc(C(C)(C)C)ccc1Oc1cccc(CN(O)C(=S)NCc2ccccc2)c1` [Compound 101], the negative logarithm of the IC50 (pIC50) was 5.35.

As for `CC(C)(C)c1ccc(Oc2ccc(CSC(=S)NCc3ccccc3)cc2)cc1` [Compound 198], the negative-log IC50 (pIC50) was 5.00. The same measure, in the same setting: the value for `S=C(Nc1ccc(Cl)c(Cl)c1)Nc1ccc(Cl)c(Cl)c1` [Compound 153] was 5.77. On to `CCCCCCNC(=S)Nc1ccc(Oc2ccc(C(C)(C)C)cc2)cc1` [Compound 135], for which the negative-log IC50 (pIC50) was 4.97. Take `O=C(Nc1ccc(Sc2ccc(Cl)c(Cl)c2)cc1)Nc1ccc(Cl)c(Cl)c1` [Compound 145]: the negative-log IC50 (pIC50) was 5.21.

With `CC(C)(C)c1noc(C(=O)Nc2ccc(Cl)c(Cl)c2)n1` [Compound 246], the pIC50 is 5.24. With `Cc1ccc(CNC(=S)N(O)C(C)c2cccc(Oc3ccc(C(C)(C)C)cc3)c2)cc1` (stereo not shown) [Compound 7], the negative logarithm of the IC50 (pIC50) is 4.81.

On to `CC(C)(C)c1ccc(Oc2ccc(NC(=S)NCc3ccc(Cl)cc3)cc2)cc1` [Compound 106], for which the pIC50 was 5.04. On the same count and under the same terms, the value for `FC(F)(F)c1cc(NC(=S)Nc2ccc(Cl)c(C(F)(F)F)c2)ccc1Cl` [Compound 166] was 5.55. For the compound `O=C(Nc1ccc(Cl)c(Cl)c1)Nc1nc2ccccc2s1` [Compound 137], the pIC50 is 4.99. For the compound `CCCc1cc(C(C)(C)C)ccc1Oc1cccc(CN(O)C(=O)Nc2ccc(Cl)c(C(F)(F)F)c2)c1` [Compound 103], the negative-log IC50 (pIC50) was 4.70. The same measure, in the same setting: then `CC(c1cccc(Oc2ccc(C(C)(C)C)cc2)c1)N(O)C(=S)NCc1ccc(F)cc1` (stereo not shown) [Compound 4], with 4.95. Same read-out and setting: then `CSc1cc(Cl)c(NC(=O)Nc2cccc(Cl)c2)cc1Cl` [Compound 163], with 4.98.

As to `CCCCOc1ccc(NC(=S)N(O)C(CC)c2cccc(Oc3ccc(C(C)(C)C)cc3)c2)cc1` (stereo not shown) [Compound 25], the pIC50 is 4.80. Same read-out and setting: then `CC(c1cccc(Oc2ccc(C(C)(C)C)cc2)c1)N(O)C(=S)NCc1cccc(Cl)c1` (stereo not shown) [Compound 16], with 4.92; and `CSc1ccc(NC(=O)Nc2cc(Cl)c(Cl)c(Cl)c2)cc1` [Compound 155], with 5.24; and `O=C(Nc1ccc(Cl)c(Cl)c1)c1nccs1` [Compound 243], with 4.71. Still for that read-out and setting: the value for `CC(C)(C)OC(=O)N1CCCC(CNC(=S)Nc2ccc(Oc3ccc(C(C)(C)C)cc3)cc2)C1` (stereo not shown) [Compound 125] was 5.03. Still for that read-out and setting: the value for `O=C(Nc1ccc(Cl)c(Cl)c1)Nc1nnc(Br)s1` [Compound 240, 1-(5-bromo-1,3,4-thiadiazol-2-yl)-3-(3,4-dichlorophenyl)urea] was 5.74; that for `CC(C)(C)c1ccc(Oc2ccc(NC(=S)NCC3CCCCN3)cc2)cc1` (stereo not shown) [Compound 126] was 5.15; that for `CCC(c1cccc(Oc2ccc(C(C)(C)C)cc2)c1)N(O)C(=S)NCc1cccc(OC)c1` (stereo not shown) [Compound 21] was 5.25. `CCC(c1cccc(Oc2ccc(C(C)(C)C)cc2)c1)N(O)C(=S)NCc1ccccc1` (stereo not shown) [Compound 20]: the pIC50 is 5.44.

As to `CC(C)(C)c1ccc(Oc2ccc(NC(=S)NCc3cccc(Br)c3)cc2)cc1` [Compound 107], the negative-log IC50 (pIC50) is 5.14.
